From paper PMC7110780, “Multimodular fused acetyl–feruloyl esterases from soil and gut Bacteroidetes improve xylanase depolymerization of recalcitrant biomass” (Biotechnology for Biofuels, 2020)

Biological target: T1, BoCE6–CE1 (Bacteroides ovatus, UniProt A0ABU3ING8)
T1 construct: gene RO706_05995
Test: absorbance […] nm
Format: biochemical
Settings: […] °C, […] buffer

T1 sequence (A0ABU3ING8 20-638): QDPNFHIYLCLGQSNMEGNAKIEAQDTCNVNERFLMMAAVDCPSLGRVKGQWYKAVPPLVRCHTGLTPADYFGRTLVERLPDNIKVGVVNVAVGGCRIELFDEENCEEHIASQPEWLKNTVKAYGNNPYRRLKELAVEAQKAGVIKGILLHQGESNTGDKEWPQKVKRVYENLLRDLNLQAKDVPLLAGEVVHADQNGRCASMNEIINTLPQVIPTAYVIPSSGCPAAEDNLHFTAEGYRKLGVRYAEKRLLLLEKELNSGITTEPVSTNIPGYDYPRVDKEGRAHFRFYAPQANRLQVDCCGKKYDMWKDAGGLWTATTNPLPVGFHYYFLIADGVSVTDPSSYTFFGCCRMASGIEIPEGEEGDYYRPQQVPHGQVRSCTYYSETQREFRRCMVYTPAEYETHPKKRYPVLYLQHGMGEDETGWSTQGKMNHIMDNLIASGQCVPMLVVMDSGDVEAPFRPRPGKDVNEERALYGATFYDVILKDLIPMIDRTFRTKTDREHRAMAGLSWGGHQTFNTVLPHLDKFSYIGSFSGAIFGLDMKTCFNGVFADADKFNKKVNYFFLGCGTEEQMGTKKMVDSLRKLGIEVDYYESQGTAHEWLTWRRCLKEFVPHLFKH

Row | Compound | absorbance 340 nm
1 | COC(=O)/C=C/c1cc(OC)c(O)c(OC)c1 [MSA] | The activity on MFA and MSA was in the same order of magnitude for the full-length
2 | COC(=O)/C=C/c1ccc(O)c(OC)c1 [MFA] | The activity on MFA and MSA was in the same order of magnitude for the full-length
